Data taken from paper PMC8119466, “A screen of FDA-approved drugs identifies inhibitors of protein tyrosine phosphatase 4A3 (PTP4A3 or PRL-3)” (Scientific Reports, 2021).
Where a name gives a salt, the structure may show the parent alone. Read-outs that look alike come from different tables or passages of the source.

Columns and labels:
Type in all cases: biochemical
[1] = biological target: T1, recombinant PRL-1 (Homo sapiens, UniProt Q93096); experiment: In vitro phosphatase assay (DiFMUP hydrolysis), PRL-1; note: test concentration or dose not given here
T1 construct: 6xHis (N, cleaved yes); made in house; host or cells: E. coli One Shot BL21 Star
T1 sequence (Q93096 1-173): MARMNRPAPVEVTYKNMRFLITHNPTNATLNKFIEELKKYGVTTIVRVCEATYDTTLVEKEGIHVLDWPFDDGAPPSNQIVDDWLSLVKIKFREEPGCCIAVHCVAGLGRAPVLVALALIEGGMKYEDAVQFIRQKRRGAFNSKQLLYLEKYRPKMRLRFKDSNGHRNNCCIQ

[2] = biological target: T2, recombinant PRL-2 (Homo sapiens, UniProt Q12974); experiment: In vitro phosphatase assay (DiFMUP hydrolysis), PRL-2;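 note: PRL-2 activity read as DiFMUP hydrolysis after 20 min at room temperature with drug, enzyme first pre-reduced at 4 °C for 20 min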
T2 construct: 6xHis (N, cleaved yes); made in house; host or cells: E. coli One Shot BL21 Star
T2 sequence (Q12974 1-167): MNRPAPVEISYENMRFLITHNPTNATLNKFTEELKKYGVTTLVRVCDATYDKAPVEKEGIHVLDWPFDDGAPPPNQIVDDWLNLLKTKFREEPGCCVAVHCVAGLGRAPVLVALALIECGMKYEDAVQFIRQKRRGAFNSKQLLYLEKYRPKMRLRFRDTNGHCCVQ

[3] = biological target: T3, recombinant PRL-3 (Homo sapiens, UniProt O75365); experiment: In vitro phosphatase assay (DiFMUP hydrolysis), PRL-3; note: test concentration or dose not given here
T3 construct: 6xHis (N, cleaved yes); made in house; host or cells: E. coli One Shot BL21 Star
T3 sequence (O75365 whole entry): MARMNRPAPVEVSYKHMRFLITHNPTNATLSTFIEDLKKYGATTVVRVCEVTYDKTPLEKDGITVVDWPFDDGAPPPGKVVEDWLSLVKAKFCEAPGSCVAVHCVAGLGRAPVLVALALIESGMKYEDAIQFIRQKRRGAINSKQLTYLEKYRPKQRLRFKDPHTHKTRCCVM

[4] = FDA-approved drug screen, compared to DMSO
[5] = FDA-approved drug screen, activity compared to DMSO

SMILES | % Phosphatase Activity (compared to DMSO) PRL-1 [1, 4] [%] | % Phosphatase Activity (compared to DMSO) PRL-2 [2, 4] [%] | % Phosphatase Activity (compared to DMSO) PRL-3 [3, 4] [%] | further results
C[C@H]1COc2c(N3CCN(C)CC3)c(F)cc3c(=O)c(C(=O)O)cn1c23 [Levofloxacin hydrate] | 322 | 306 | 316 | 
CCOc1cc2ncc(C#N)c(Nc3ccc(F)c(Cl)c3)c2cc1NC(=O)/C=C/CN(C)C [Pelitinib (EKB-569)] | 111 | 120 | 97 | 
Nc1nc2c(ncn2COCCO)c(=O)[nH]1 [Aciclovir] | 85 | 99 | 89 | 
CN1CC(=O)N2[C@H](c3ccc4c(c3)OCO4)c3[nH]c4ccccc4c3C[C@@H]2C1=O [Tadalafil] |  |  |  | % Phosphatase Activity (compared to DMSO) PRL-1 [1, 5]: 109%; % Phosphatase Activity (compared to DMSO) PRL-2 [2, 5]: 97%; % Phosphatase Activity (compared to DMSO) PRL-3 [3, 5]: 82%
C[C@H](O)C(=O)Nc1c(I)c(C(=O)NC(CO)CO)c(I)c(C(=O)NC(CO)CO)c1I [Iopamidol] | 96 | 98 | 90 | 
O=C1Nc2ccc(Cl)cc2[C@@](C#CC2CC2)(C(F)(F)F)O1 [Efavirenz] | 87 | 72 | 97 | 
CC(C)OC(=O)C(C(=O)OC(C)C)=C1SC=CS1 [Malotilate] | 70 | 58 | 61 | 
Nc1nc(=O)c2c([nH]1)NC[C@H](CNc1ccc(C(=O)N[C@@H](CCC(=O)[O-])C(=O)[O-])cc1)N2C=O.[Ca+2] [Calcium Levofolinate] | 96 | 101 | 105 | 
NC[C@@H]1O[C@H](O[C@H]2[C@@H](O)[C@H](O[C@@H]3[C@@H](O)[C@H](N)C[C@H](N)[C@H]3O[C@H]3O[C@H](CN)[C@@H](O)[C@H](O)[C@H]3N)O[C@@H]2CO)[C@H](N)[C@@H](O)[C@@H]1O.O=S(=O)(O)O [Neomycin sulfate] | 98 | 103 | 86 | 
CCN(CC)C(=O)c1cccc(C)c1 [DEET] | 95 | 77 | 85 | 
CC(=O)[C@H]1CC[C@H]2[C@@H]3CCC4=CC(=O)CC[C@]4(C)[C@H]3CC[C@]12C [Progesterone] | 90 | 96 | 76 | 
COc1ccc(C(=O)CC(=O)c2ccc(C(C)(C)C)cc2)cc1 [Avobenzone] | 93 | 68 | 87 | 
COc1ccc2[n-]c([S@@+]([O-])Cc3ncc(C)c(OC)c3C)nc2c1.[Na+] [Esomeprazole Sodium] | 112 | 124 | 92 | 
Cc1c(NC(=O)c2cccnc2)c(=O)n(-c2ccccc2)n1C [Nifenazone] | 91 | 105 | 92 | 
C=CCc1cc(OC)c(O)c(C(=O)NCCO)c1 [Alibendol] | 90 | 109 | 81 | 
O=C(O)Cc1ccccc1Nc1c(Cl)cccc1Cl [Diclofenac Sodium] | 100 | 115 | 92 | 
CCn1cc(C(=O)O)c(=O)c2cc(F)c(N3CCNCC3)cc21 [Norfloxacin] | 131 | 130 | 111 | 
COc1cc(C)c(/C=C/C(C)=C/C=C/C(C)=C/C(=O)O)c(C)c1C [Acitretin] | 83 | 87 | 62 | 
O=C1O[C@H](CO)[C@@H](O)[C@H](O)[C@H]1O [Gluconolactone] | 103 | 98 | 82 | 
N#CC[C@H](C1CCCC1)n1cc(-c2ncnc3[nH]ccc23)cn1 [Ruxolitinib (INCB018424)] | 116 | 132 | 66 | 

SMILES | % Phosphatase Activity (compared to DMSO) PRL-1 [1, 4] [%] | % Phosphatase Activity (compared to DMSO) PRL-2 [2, 4] [%] | % Phosphatase Activity (compared to DMSO) PRL-3 [3, 4] [%] | further results
CC[C@]1(O)C[C@H]2CN(CCc3c([nH]c4ccccc34)[C@@](C(=O)OC)(c3cc4c(cc3OC)N(C=O)[C@H]3[C@@](O)(C(=O)OC)[C@H](OC(C)=O)[C@]5(CC)C=CCN6CC[C@]43[C@@H]65)C2)C1 [Vincristine] |  |  |  | % Phosphatase Activity (compared to DMSO) PRL-1 [1, 5]: 85%; % Phosphatase Activity (compared to DMSO) PRL-2 [2, 5]: 100%; % Phosphatase Activity (compared to DMSO) PRL-3 [3, 5]: 61%
COc1ccccc1OCC(O)COC(N)=O (stereo not drawn) [Methocarbamol] | 92 | 91 | 100 | 
CN1C[C@@H]2C[C@H]1CN2c1cc2c(cc1F)c(=O)c(C(=O)O)cn2C1CC1.CS(=O)(=O)O [Danofloxacin Mesylate] | 998 | 757 | 146 | 
CC12CC3CC(C)(C1)CC(N)(C3)C2 [Memantine HCl] | 83 | 107 | 94 | 
CCC[C@H](N[C@@H](C)C(=O)N1[C@H](C(=O)O)C[C@@H]2CCCC[C@@H]21)C(=O)OCC [Perindopril Erbumine] | 88 | 84 | 96 | 
C[C@H]1CNCCCN1S(=O)(=O)c1cccc2cncc(F)c12 [Ripasudil (K-115)] | 95 | 94 | 96 | 
CC1(C)OC(=O)NC1=O [5,5-Dimethyloxazolidine-2,4-dione] | 94 | 94 | 82 | 
Cc1ccc(NC(=O)c2ccc(CN3CC[C@H](N(C)C)C3)c(C(F)(F)F)c2)cc1Nc1nccc(-c2cncnc2)n1 [Bafetinib (INNO-406)] | 97 | 105 | 76 | 
CCCCCCCCCCCC[N+](C)(C)CCOc1ccccc1 [Domiphen Bromide] | 106 | 104 | 84 | 
C[C@@H](O)[C@H]1C(=O)N2C(C(=O)O)=C(S[C@@H]3CN[C@H](CNS(N)(=O)=O)C3)[C@H](C)[C@H]12.O [Doripenem Hydrate] | 107 | 107 | 69 | 
Cc1ccc(NC(=O)c2ccc(CN3CCN(C)CC3)cc2)cc1Nc1nc(-c2cccnc2)cs1 [Masitinib (AB1010)] | 115 | 117 | 92 | 
Cl.Cl.O=C(O)COCCN1CCN(C(c2ccccc2)c2ccc(Cl)cc2)CC1 (stereo not drawn) [Cetirizine DiHCl] |  |  |  | % Phosphatase Activity (compared to DMSO) PRL-1 [1]: 92%; % Phosphatase Activity (compared to DMSO) PRL-2 [2]: 89%; % Phosphatase Activity (compared to DMSO) PRL-3 [3]: 84%
COc1nc(C)nc(Cl)c1N=C1NCCN1 [Moxonidine] | 105 | 109 | 80 | 
CCCCc1nc(Cl)c(CO)n1Cc1ccc(-c2ccccc2-c2nnn[n-]2)cc1.[K+] [Losartan Potassium (DuP 753)] | 94 | 93 | 71 | 
CC(C)c1nc(CN(C)C(=O)N[C@@H](CCN2CCOCC2)C(=O)N[C@H](CC[C@H](Cc2ccccc2)NC(=O)OCc2cncs2)Cc2ccccc2)cs1 [Cobicistat (GS-9350)] | 88 | 95 | 95 | 
NC[C@H](CC(=O)O)c1ccc(Cl)cc1 [(R)-baclofen] | 95 | 121 | 117 | 
CNC(=O)c1cc(Oc2ccc(NC(=O)Nc3ccc(Cl)c(C(F)(F)F)c3)c(F)c2)ccn1 [Regorafenib (BAY 73-4506)] | 86 | 88 | 79 | 
CN(C)CCC[C@@]1(c2ccc(F)cc2)OCc2cc(C#N)ccc21 [Escitalopram Oxalate] | 89 | 117 | 67 | 
NNC(=O)c1ccncc1 [Isoniazid] | 91 | 94 | 91 | 
